Key:
[1] = Ratio of drug concentration in brain to plasma of triple transgenic C57BL/6 mouse alzheimer disease model at 30 mg/kg,po and measured after 2 hrs; assay type: ADME, organism-based
[2] = Permeability of compound at pH 7.4 by PAMPA assay; assay type: ADME; conditions: read-out: permeability
[3] = Drug exposure in brain of triple transgenic C57BL/6 mouse alzheimer disease model at 30 mg/kg,po and measured after 2 hrs; assay type: ADME, organism-based; conditions: read-out: Ct
[4] = Permeability across apical to basolateral side in human Caco2 cells; assay type: ADME, cell-based; conditions: Caco-2, read-out: permeability
[5] = Permeability of compound at pH 5.5 by PAMPA assay; assay type: ADME; conditions: read-out: permeability
[6] = Permeability across basolateral to apical side in human Caco2 cells; assay type: ADME, cell-based; conditions: Caco-2, read-out: permeability
[7] = Drug exposure in plasma of triple transgenic C57BL/6 mouse alzheimer disease model at 30 mg/kg,po and measured after 2 hrs; assay type: ADME, organism-based

SMILES	Kp at 2 h [1]	Papp [2]	concentration at 2 h [3]	Papp A→B [4]	Papp [5]	Papp B→A [6]	concentration at 2 h [7]
O=C(Nc1cnccc1-c1ccccc1)c1ccnc(NC(=O)C2CC2)c1	0.2	48.3 ×10⁻⁶ cm/s	440 nM	31.9 ×10⁻⁶ cm/s	52.6 ×10⁻⁶ cm/s	30.1 ×10⁻⁶ cm/s	–
O=C(Nc1cnccc1-c1ccc(Cl)cc1)c1ccnc(NC(=O)C2CC2)c1	–	126 ×10⁻⁶ cm/s	–	35.4 ×10⁻⁶ cm/s	90.4 ×10⁻⁶ cm/s	27.9 ×10⁻⁶ cm/s	–
CCOc1ccncc1NC(=O)c1ccnc(NC(=O)C2CC2)c1	–	–	–	–	–	–	47 nM
